The record followed here is patent US20220031690A1, “ANTI-NEURODEGENERATIVE DISEASE AGENT” (Hayashibara Co., Ltd., priority 2018, published 2022).

Data set [1] can be described thus: Hydroxyl radical scavenging ability (Fenton reaction, ESR). The data set is classed as biochemical. To be noted: 4PDMPO spin trap.
Description: In this experiment, hydroxyl radicals generating from diethylenetriamine-N, N, N′, N″-pentaacetic acid (DTPA) by Fenton reaction were trapped with 4PDMPO and measured by ESRs.
Specifically, each of the dye compounds dissolved in DMSO was diluted with purified water to obtain a test compound solution. To a glass test tube, 50 μl of 1 mM hydrogen peroxide solution and 50 μl of 356 mM 4PDMPO were added, followed by 50 μl of the test compound solution. Then, 50 μl of an aqueous solution containing 1 mM FeSO4 and 1 mM DTPA (commercialized by Fuji Film Wako Pure Chemical Industries, Ltd.) was added thereto, mixed with a vortex mixer for 10 seconds, and then reacted for exactly 40 seconds, and the reaction solution was used for ESR measurement. […]
(§1) Detailed conditions of the ESR measurement are described in this section. A reaction solution for measuring various radicals was placed in a flat quartz cell for ESR, and the ESR spectrum was measured by an ESR device (commercialized by JEOL Ltd., trade name “Free radical Controller JES-FR30”). […] The peak height of the ESR spectrum corresponding to each radical at this time was set as 100, and the relative intensity when the solution was added and reacted was obtained and expressed as the radical residual rate (%). […]
Data set [2] is described as follows: Peroxyl radical scavenging ability (AAPH, ESR). The data set is classed as biochemical. Conditions: DMPO spin trap, AAPH 37° C.
Description: Since the peroxyl radical generated by heating of 2,2′-azobis (2-aminodipropane) dihydrochloride (hereinafter referred to as “AAPH”) is a model of biologically derived radicals, in this experiment, the ability of the test compound to scavenge the peroxyl radical was measured by ESR.
Specifically, each of the dye compounds dissolved in DMSO was diluted with 0.1 M phosphate buffer to prepare a test compound solution. […] Measurements were performed in triplicate for each of the concentrations of each test compound, and the IC50 was calculated using the mean value thereof and shown in Table 6.
as §1
Data set [3] can be described thus: DPPH radical scavenging ability (absorbance method). The data set is classed as biochemical. An excerpt: 2,2-Diphenyl-1-picrylhydrazyl (hereinafter referred to as “DPPH”) is a radical with an unpaired electron and has the oxidizing ability of other substances. In addition, because it is stable and easy to handle, it is widely used as an artificial radical-like substance for measuring the antioxidant ability of antioxidants. When DPPH reacts with a substance having antioxidant ability, it loses its own oxidizing ability and its color changes from deep purple to […].
DPPH (commercialized by Tokyo Kasei Kogyo Co., Ltd., Tokyo, Japan) was dissolved in ethanol to prepare a 167 μM DPPH ethanol solution, and 90 μl of the solution was added to each well of the 96-well microplate. A 60 μl each of the test compound serially diluted with ethanol was added to the DPPH ethanol solution, and the mixture was reacted at room temperature for 2 hours, and then the absorbance at 490 nm was measured. […] From those value, the 50% inhibitory concentration of the DPPH radical (Hereinafter, it is referred to as “IC50”) was calculated.
In general terms: The DPPH test is a chemical assay of radical scavenging.

Data set [4] in a line: Superoxide scavenging ability (hypoxanthine/xanthine oxidase, ESR). The data set is classed as biochemical.
Description: In this experiment, superoxide generated by reacting hypoxanthine with xanthine oxidase was captured by 5,5-dimethyl-4-phenyl-1-pyrroline N-oxide (hereinafter referred to as “4PDMPO”) as a spin trapping agent, and SOD-like activity by the test compound was measured by ESR.
Specifically, A 50 μl of aqueous solution of hypoxanthine (commercialized by Fuji Film Wako Pure Chemical Industries, Ltd., Tokyo, Japan) prepared to 1 mM was added to a glass test tube. […] The ESR spectrum of the reaction mixture was measured 40 seconds after the addition of xanthine oxidase, and the radical scavenging ability of the test compound was shown as its relative percentage thereof, with the case where no dye compound was added as the radical intensity of 100%. Measurements were performed in triplicate for each of the concentrations of each test compound, and the IC50 was calculated using the average value thereof and shown in Table 6. […]
A reaction solution for measuring various radicals was placed in a flat quartz cell for ESR, and the ESR spectrum was measured by an ESR device (commercialized by JEOL Ltd., trade name “Free radical Controller JES-FR30”). […] The peak height of the ESR spectrum corresponding to each radical at this time was set as 100, and the relative intensity when the solution was added and reacted was obtained and expressed as the radical residual rate (%). […]
The subject of the next data set is PC12-HS cells. As to the kind of experiment: Evaluation method B: neurite-outgrowth promoting activity in the presence of NGF. The format is cell-based, rat. To be noted: for Neurite-outgrowth rate (%) / Action on PC12-HS neurite-outgrowth promotion (500 ng/ml): NGF 10 ng/ml; for Action on PC12-HS neurite-outgrowth promotion (500 ng/ml): 3 days, class of neurite-outgrowth rate; for neurite-outgrowth promoting activity (in words): 200 and 1,000 nM, comment on Table 2. The text has this: As a model of the nerve cell, the NGF (nerve growth factor) highly sensitive strain of PC12 cell derived from the rat adrenal pheochromocytoma (hereinafter referred to as “PC12-HS cell”; JCRB cell bank, National Research and Development Institute of Health and Nutrition), which has been widely used as a suitable model for research on human neurodegenerative disease, was used. As the test compound, […] of trimethine cyanine dye compounds; NK-5 (Chemical formula 2), NK-36 (Chemical formula 3), NK-44 (Chemical formula 5) and dye compounds represented by Chemical formulae 12 to 18, and NK-6 (Chemical formula 7), which is a monomethine cyanine dye, were selected. In addition, two kinds of ethylene cross-linked dyes (Chemical formulae 19 and 20), 15 kinds of monomethine cyanine dyes (Chemical formulae 21 to 35), and seven kinds of trimethine cyanine dyes (Chemical formulae 36 to 42), which were expected to have a good neurocyte growth acceleration activity and/or neurite-outgrowth promoting activity in the screening disclosed in Patent literature 6, were also re-evaluated for comparison. The Chemical formulae 12 to 42 are shown below.
The cyanine dye compounds subjected to the test (purity 97% by mass or more, synthesized by Hayashibara Co., Ltd., Okayama, Japan) were individually dissolved in DMSO (product number “D8418”, commercialized by SIGMA Corporation) at a concentration of 5 mg/ml, and the solutions were then filtered through DMSO-resistant membrane (“Millex-LGS LLG025SS”, commercialized by Millipore Corporation) and stored at 25° C. in a dark condition. At the time of use, they were further diluted with Dulbecco's Medium (hereinafter, abbreviated as “D-MEM medium”, commercialized by Nissui Pharmaceutical Co., Ltd.) supplemented by 10% by volume of fetal bovine serum (FBS), and subjected to the test.
As in the case of evaluation of neurocyte growth accelerating activity (Evaluation method A), 50 μl/well of each test compound solution, prepared by diluting with the culture medium to give a final concentration of 500 ng/ml, and the culture medium containing 20 ng/ml of mouse NGF (mouse derived, final concentration 10 ng/ml, commercialized by Chemicon International, Inc., CA, USA) (50 μl/well) were added to the precultured PC12-HS cells in each well, and then cultured for three days. Culture medium was removed on day 3 of culture, and cells were fixed by adding 100 μl/well of 10% by volume of glutaraldehyde and standing for 20 minutes at room temperature. As a negative control, PC12-HS cells, cultured for three days with culture medium, were fixed with glutaraldehyde similarly as above. Fixed cells were observed under a microscope to assess the neurite-outgrowth. The neurite-outgrowth rate (%) was determined by observing the cells using a microscope by adjusting the magnitude to give about 100 cells in one visual field, counting the number of cells having neurites twice or more in length of the cell body (major axis), dividing by the total number of cells in the same visual field, and multiplying by 100. Measurements were carried out at three points for each test compound. […] In this experiment, the neurite-outgrowth rate was 5% or less when NGF was added (final concentration 10 ng/ml) without the addition of the test compound.
The method was based on Experiment 1-1, except the concentrations of the test compounds were set to three doses of 40 nM, 200 nM and 1,000 nM for evaluation method A (neurocyte growth accelerating effect), and two doses of 200 nM and 1,000 nM for evaluation method B (neurite outgrowth promoting effect). Measurements were performed in triplicate for each concentration of each test compound in both evaluation methods A and B. The result of the evaluation method A was expressed as a cell proliferation rate (%) by determined a relative percentage (%) when the value of the negative control to which the test compound was not added, was regarded as 100%. […]

The nature of data set [5]: Solubility in distilled water and ethanol (absorbance method). The data set is classed as physicochemical. The procedure:
A test sample solution, prepared by dissolving each test compound in DMSO to give a concentration of 5 mg/mL, was diluted with 70% (v/v) acetonitrile aqueous solution, and the absorption spectrum at the wavelength range of 400 nm to 900 nm is measured by a spectrophotometer (“FLEX STATION 3”, manufactured by Molecular Devices Japan, Tokyo, Japan). The maximum absorption wavelength of each test compound was determined, then the correlation equation between the absorbance and the concentration at the wavelength was calculated to prepare a calibration curve, and then the following quantitative test was carried out. […] The solubility of each dye compound was measured as follows with reference to the method described in the Japanese Pharmacopoeia. […] After 30 min, 1 mL of the mixture was sampled at 3 times from each test solution, centrifuged at 18,400×g for 5 min, 0.3 mL of the supernatant was collected and admixed with 0.7 mL of acetonitrile to make a total volume of 1.0 mL. Then, the absorbance was measured at the maximum absorption wavelength corresponding to each of the dyes described above, and the concentration of dye was calculated from the calibration curve.

In general, IC50 refers to the concentration that gives 50% inhibition. On to `CCN1C=CC(=Cc2cc[n+](CC)c3ccccc23)c2ccccc21.[I-]` [NK-6], for which the IC50 turned out to be 62 µM in data set [1]; 43 µM in data set [2]; 380 µM in data set [3] (ethanol, room temperature, 2 hours, absorbance at 490 nm); 69 µM in data set [4] (ESR, 4PDMPO spin trap, read-out: IC50 superoxide radical). The “relative DPPH radical scavenging activity based on the IC50 value, relative to NK-4” value in data set [3] was “about 2 times”. The “superoxide radical scavenging ability relative to NK-4 (comparison of IC50 values)” value in data set [4] is on record as “more than twice that of NK-4”. The “Neurite-outgrowth rate (%)” value in the data set on PC12-HS cells (1.000 nM) was found to be 41.5%; in the data set on PC12-HS cells (200 nM), 32.6%. Also, the “Action on PC12-HS neurite-outgrowth promotion (500 ng/ml)” value (“Action” for short) with PC12-HS cells is “⊚ (45% or more was judged to be more potent than NK-4 (“double circle”))”. Besides, the “neurite-outgrowth promoting activity (in words)” value in the data set with PC12-HS cells is “stronger neurite-outgrowth promoting activity than NK-4”. The “Solubility Dictilled water” value in data set [5] (distilled water, room temperature, 30 min) was 93 µg/mL. Moreover, the “Solubility Ethanol” value in data set [5] (ethanol) was 645 µg/mL.
Turning to `CCN1C=CC(=CC=Cc2cc[n+](CC)c3ccccc23)c2ccccc21.[Br-]` [NK-36], the “Neurite-outgrowth rate (%)” value with PC12-HS cells (1.000 nM) is recorded as 28.7%. Moreover, the “Neurite-outgrowth rate (%)” value with PC12-HS cells (200 nM) was 33.8%. In addition, in the data set with PC12-HS cells, the “Action” value is recorded as “◯ (When the mean neurite-outgrowth rate was 25 to 44%, it was judged to be equivalent to the positive control NK-4 (“circle”))” and the “neurite-outgrowth promoting activity (in words)” value is listed as “almost equivalent neurite-outgrowth promoting rate to NK-4”.
For `CCCCN1C=CC(=CC=Cc2cc[n+](CCCC)c3ccccc23)c2ccccc21.[I-]` [NK-44], the “Neurite-outgrowth rate (%)” value in the data set on PC12-HS cells (1.000 nM) was determined as 22.9%. In addition, in the data set on PC12-HS cells (200 nM), the “Neurite-outgrowth rate (%)” value turned out to be 29.3%. Also, in the data set on PC12-HS cells, the “Action” value is “◯ (When the mean neurite-outgrowth rate was 25 to 44%, it was judged to be equivalent to the positive control NK-4 (“circle”))” and the “neurite-outgrowth promoting activity (in words)” value is given as “almost equivalent neurite-outgrowth promoting rate to NK-4”.
